Assays:
heart rate [1] = assay: Continuous heart rate recording, one individual, components on successive days; assay type: in vivo, human; conditions: baseline as reference, time point not given (5, 10, 15, 30 minutes recorded), caffeine 150 mg, tyrosine 50 mg, histadine 100 mg, Ginkgo Biloba 120 mg, choline 120 mg
Protocol: To test the components of example 14, a series of experiments were performed using a continuous heart rate recorder. In an individual on successive days, heart rate was recoded as RR intervals in msec. The individual sat quietly for 30 minutes as baseline. Then on day 1 the combination of caffeine, 150 mg, with tyrosine, 50 mg, histadine, 100 mg, Ginkgo Biloba, 120 mg, and choline 120 mg was given. […] A percent change was calculated with the baseline as reference. On Day 2 caffeine alone was ingested using the same protocol. […] On day 5, ginkgo biloba was ingested.

heart rate [2] = assay: Continuous heart rate monitoring in 6 individuals, sustained effect; assay type: in vivo, human; conditions: baseline 0.0
Protocol: In 6 individuals, heart rate experiments were performed to show the sustained effect of the combination of the five elements outlined in this invention. […] They sat quietly for […] to establish a baseline. They then on subsequent days ingested combination of the 5 elements described in this invention. The results are depicted in table 2 and FIG. 5. Where C is caffeine 150 mg, T is tyrosine 50 mg, CH is choline 200 mg, and GB is ginkgo biloba 120 mg.

[3] = test system: vasodilation of the skin (skin temperature); assay: Skin temperature probe test of skin vasodilation; assay type: in vivo, human; conditions: single ingredient given alone
Description: A person ingested the preparation designed to increase nitric oxide and acetylcholine in order to induce vasodilation (example 3). The preparation included choline, arginine, hawthorn berry, cocoa, dextrose, and cinnamon. A temperature probe designed to assess skin temperature measured vasodilation of the skin. The baseline skin temperature was 99 degrees Fahrenheit. Within fifteen minutes after ingestion of the capsules, the skin temperature increased to 101.3 degrees Fahrenheit and remained elevated for three hours. The next day arginine alone was given with no effect on skin temperature. The following day, choline alone was given with no effect on skin temperature. The preparation was given for two weeks when skin temperature was again measured. The skin temperature increased by two degrees and remained elevated for 60 minutes (FIG. 3).

[4] = test system: appetite; heart rate and heart rate variability; assay: Shell's earlier studies of attenuation of precursor formulations; assay type: in vivo; conditions: Shell's studies dating to 1987

## Cn1c(=O)c2c(ncn2C)n(C)c1=O [Caffeine]
Heart rate [1]
  percent change in heart rate: 3%
Heart rate [2]; 5 min after ingestion
  heart rate, 5 min: 3.0
Heart rate [2]; 15 min after ingestion
  heart rate, 15 min: 1.3
Heart rate [2]; 30 min after ingestion
  heart rate, 30 min: 0.0

## C[N+](C)(C)CCO [Choline]
Heart rate [1]
  percent change in heart rate: −4%
[3]
  effect on skin temperature: no effect

## N[C@@H](Cc1c[nH]cn1)C(=O)O [Histadine]
Heart rate [1]
  percent change in heart rate: 0.2%

## N[C@@H](Cc1ccc(O)cc1)C(=O)O [Tyrosine]
[4]
  time until appetite suppression is lost: approximately 7 days
Heart rate [1]
  percent change in heart rate: 1%

## N=C(N)NCCC[C@H](N)C(=O)O [arginine]
[3]
  effect on skin temperature: no effect

Source: US7585523B2, “Composition and method to augment and sustain neurotransmitter production” (Targeted Medical Pharma, priority 2002, dated 2009)
